Assay: Compound was tested for their chelating potential (free ligand) determined by distribution coefficient method.
Type: ADME
Conditions: octanol/water

| mean log D | SMILES |
| --- | --- |
| 1.9 | CCCCCCn1ccc(=O)c(O)c1C |
| 1.24 | CCCCCn1ccc(=O)c(O)c1C |

Same assay, conditions: octanol/water; read-out: mean log D

| logD | SMILES |
| --- | --- |
| 0.78 | CCCCOCc1cc(=O)c(O)co1 |
| 0.69 | CCCn1cccc(O)c1=O |
| -0.38 | CCOCc1cc(=O)c(O)co1 |
| 0.71 | CCCCn1ccc(=O)c(O)c1C |
| 0.3 | CCCOCc1cc(=O)c(O)co1 |
| 1.4 | CCCc1oc(C)cc(=O)c1O |
| 0.2 | CCn1cccc(O)c1=O |
| -0.28 | Cn1cccc(O)c1=O |
| -0.66 | NCCn1ccc(=O)c(O)c1 |
| 1.18 | CCCCn1cccc(O)c1=O |
| -0.59 | Cc1cc(=O)c(O)co1 |
| 1.07 | CCc1oc(C)cc(=O)c1O |
| 0.05 | Cc1occc(=O)c1O [MALTOL] |
| 0.44 | Cc1cc(=O)c(O)c(C)o1 |
| 1.92 | CCCCc1oc(C)cc(=O)c1O |
| -0.62 | COCc1cc(=O)c(O)co1 |
| -0.92 | O=c1ccocc1O |
| 0.63 | CCc1occc(=O)c1O [E637] |

| SMILES | logD |
| --- | --- |
| Oc1cccc2cccnc12 [OXYQUINOLINE] | 1.87 |
| O=c1cccccc1O [TROPOLONE] | -0.14 |
